Literature values as cited in PMC2923200, “Identification of a Cardiac Specific Protein Transduction Domain by In Vivo Biopanning Using a M13 Phage Peptide Display Library in Mice” (PLoS ONE, 2010).

Settings: in vitro phage display screening by other investigators
From the text: However, it is unclear how the ability of CTP to interact with these cellular components in vitro facilitates transduction of cardiac specific tissue in vivo. We currently are examining whether the transduction process is energy independent as well as whether it involves endocytosis. Also, the s ...

- affinity for binding to apatite-based, bone-like minerals: high affinity
- affinity for binding to two specific sulfated carbohydrates: high affinity
Sequence: APWHLSSQYSRT [CTP]
